Laboratory results as given in ChEMBL document CHEMBL5321233, “Biological activity of 1,2,3-triazole-2-amino-1,4-naphthoquinone derivatives and their evaluation as therapeutic strategy for malaria control” (Eur J Med Chem, 2023).
Calls of active or inactive are those of the source. The rule behind the calls is not given here.

How the values were obtained:
[1] = Acute toxicity in Albino Swiss mouse assessed as change in relative weight of kidney at 300 mg/kg, po administered as single dose measured after 14 days; type: organism-based; details: in vivo, 336 h, time 14 day
Plasmodium berghei [2] = test: Antimalarial activity against Plasmodium berghei ANKA infected in Albino Swiss mouse assessed as half-survival time at 30 mg/kg, po administered for 4 consecutive days measured for 30 days (reference value: 16 day); type: functional; details: time 30 day
[3] = Acute toxicity in Albino Swiss mouse assessed as pathological damage in spleen at 300 mg/kg, po administered as single dose measured after 14 days by H and E staining based analysis; type: organism-based; details: in vivo, 336 h, time 14 day
[4] = Acute toxicity in Albino Swiss mouse assessed as change in urine color at 300 mg/kg, po administered as single dose measured after 14 days; type: organism-based; details: in vivo, 336 h, time 14 day
[5] = Cytotoxicity against African green monkey Vero cells incubated for 24 hrs by MTT assay; type: toxicity, cell-based; details: chlorocebus sabaeus
[6] = Acute toxicity in Albino Swiss mouse assessed as change in diarrhea at 300 mg/kg, po administered as single dose measured after 14 days; type: organism-based; details: in vivo, 336 h, time 14 day
[7] = Acute toxicity in Albino Swiss mouse assessed as signs of cyanosis at 300 mg/kg, po administered as single dose measured after 14 days; type: organism-based; details: in vivo, 336 h, time 14 day
[8] = Acute toxicity in Albino Swiss mouse assessed as signs of pallor at 300 mg/kg, po administered as single dose measured after 14 days; type: organism-based; details: in vivo, 336 h, time 14 day
[9] = Acute toxicity in Albino Swiss mouse assessed as aggressiveness at 300 mg/kg, po administered as single dose measured after 14 days; type: organism-based; details: in vivo, 336 h, time 14 day
Plasmodium falciparum [10] = test: Induction of morphological changes in chloroquine-resistant Plasmodium falciparum W2 trophozoites assessed as dense cytoplasm with undefined organelles by TEM analysis; type: functional, organism-based
[11] = Toxicity in Albino Swiss mouse infected with Plasmodium berghei ANKA assessed as mortality rate at 30 mg/kg, po administered for 4 consecutive days measured for 14 days relative to control; type: organism-based; details: in vivo, time 14 day, read-out: Activity
[12] = Hemolytic activity in human red blood cells assessed as hemoglobin release at 250 to 15.6 uM incubated for 60 mins by spectrophotometry; type: toxicity, cell-based, Erythrocyte; details: dose 250-15.6 µM, read-out: Activity
Plasmodium falciparum [13] = test: Induction of morphological changes in chloroquine-resistant Plasmodium falciparum W2 trophozoites assessed as degraded cytoplasm by TEM analysis relative to control; type: functional
[14] = Acute toxicity in Albino Swiss mouse assessed as signs of toxicity at 300 mg/kg, po administered as single dose measured after 14 days; type: organism-based; details: in vivo, 336 h, time 14 day
[15] = Acute toxicity in Albino Swiss mouse assessed as change in sensory function at 300 mg/kg, po administered as single dose measured after 14 days; type: organism-based; details: in vivo, 336 h, time 14 day
[16] = Octanol-water partition coefficient, logP of the compound; type: physicochemical
[17] = Acute toxicity in Albino Swiss mouse assessed as pathological lesions in liver at 300 mg/kg, po administered as single dose measured after 14 days by H and E staining based analysis; type: organism-based; details: in vivo, 336 h, time 14 day
[18] = Acute toxicity in Albino Swiss mouse assessed as macroscopic alterations in liver at 300 mg/kg, po administered as single dose measured after 14 days by H and E staining based analysis; type: organism-based; details: in vivo, 336 h, time 14 day
[19] = Selectivity index, ratio of CC50 for human HepG2 cells to IC50 for chloroquine-resistant Plasmodium falciparum W2 infected in human erythrocytes; type: toxicity, cell-based; details: read-out: Ratio CC50/IC50
[20] = Acute toxicity in Albino Swiss mouse assessed as contortions at 300 mg/kg, po administered as single dose measured after 14 days; type: organism-based; details: in vivo, 336 h, time 14 day
[21] = Acute toxicity in Albino Swiss mouse assessed as escape reaction at 300 mg/kg, po administered as single dose measured after 14 days; type: organism-based; details: in vivo, 336 h, time 14 day
Plasmodium falciparum [22] = test: Antimalarial activity against chloroquine-resistant Plasmodium falciparum W2 infected in human erythrocytes assessed as parasite growth inhibition incubated for 48 hrs by geimsa staining based microscopy; type: functional, organism-based; details: W2, Erythrocyte
[23] = Acute toxicity in Albino Swiss mouse assessed as change in relative weight of spleen at 300 mg/kg, po administered as single dose measured after 14 days; type: organism-based; details: in vivo, 336 h, time 14 day
[24] = Acute toxicity in Albino Swiss mouse assessed as pathological changes in kidney at 300 mg/kg, po administered as single dose measured after 14 days by H and E staining based analysis; type: organism-based; details: in vivo, 336 h, time 14 day
[25] = Acute toxicity in Albino Swiss mouse assessed as change in defecation at 300 mg/kg, po administered as single dose measured after 14 days; type: organism-based; details: in vivo, 336 h, time 14 day
[26] = Acute toxicity in Albino Swiss mouse assessed as signs of hyperemia at 300 mg/kg, po administered as single dose measured after 14 days; type: organism-based; details: in vivo, 336 h, time 14 day
Plasmodium falciparum [27] = test: Induction of morphological changes in chloroquine-resistant Plasmodium falciparum W2 trophozoites assessed as loss of membrane integrity by TEM analysis; type: functional, organism-based
[28] = Acute toxicity in Albino Swiss mouse assessed as animal mortality at 300 mg/kg, po administered as single dose measured after 14 days; type: organism-based; details: in vivo, 336 h, time 14 day
[29] = Acute toxicity in Albino Swiss mouse assessed as behavioural toxicity at 300 mg/kg, po administered as single dose measured after 14 days; type: organism-based; details: in vivo, 336 h, time 14 day
Plasmodium berghei [30] = test: Antimalarial activity against Plasmodium berghei ANKA infected in Albino Swiss mouse assessed as reduction in parasitemia at 30 mg/kg, po administered for 4 consecutive days measured after day 7 relative to control; type: functional; parameters: scale not given: the % may be the effect or the level left; details: time 7 day
[31] = Acute toxicity in Albino Swiss mouse assessed as change in relative weight of liver at 300 mg/kg, po administered as single dose measured after 14 days; type: organism-based; details: in vivo, 336 h, time 14 day
[32] = Selectivity index, ratio of CC50 for African green monkey Vero cells to IC50 for chloroquine-resistant Plasmodium falciparum W2 infected in human erythrocytes; type: toxicity, cell-based; details: read-out: Ratio CC50/IC50
[33] = Hemolytic activity in human red blood cells type A assessed as hemoglobin release at 500 to 1000 uM incubated for 60 mins by spectrophotometry; type: toxicity, cell-based, Erythrocyte; details: dose 500-1000 µM, read-out: Activity
Plasmodium falciparum [34] = test: Induction of morphological changes in chloroquine-resistant Plasmodium falciparum W2 trophozoites assessed as deteriorated food vacuole by TEM analysis; type: functional, organism-based
[35] = Acute toxicity in Albino Swiss mouse assessed as change in motor function at 300 mg/kg, po administered as single dose measured after 14 days; type: organism-based; details: in vivo, 336 h, time 14 day
[36] = Acute toxicity in Albino Swiss mouse assessed as change in urination volume at 300 mg/kg, po administered as single dose measured after 14 days; type: organism-based; details: in vivo, 336 h, time 14 day
HepG2 = test: Cytotoxicity against human HepG2 cells incubated for 24 hrs by MTT assay; type: functional

| SMILES | Activity [1] | Survival (Plasmodium berghei [2]) [days] | Activity [4] | CC50 at 24 h [5] [µM] | Activity [6] | Activity [7] | Activity [8] | Activity [9] | hemolysis at 1 h [12] [%] | Activity [14] | Activity [15] | logP [16] | selectivity ratio [19] | Activity [20] | Activity [21] | IC50 (Plasmodium falciparum [22]) [µM] | Activity [23] | Activity [25] | Activity [26] | Activity [28] | other results |
| --- | --- | --- | --- | --- | --- | --- | --- | --- | --- | --- | --- | --- | --- | --- | --- | --- | --- | --- | --- | --- | --- |
| COc1ccc(-c2cn(CCNC3=CC(=O)c4ccccc4C3=O)nn2)cc1 | Non-Toxic | 26 | Non-Toxic | 401 | Non-Toxic | Non-Toxic | Non-Toxic | Non-Toxic | < 40 | Non-Toxic | Non-Toxic | 2.72 | 68.8 | Non-Toxic | Non-Toxic | 4.2 | Non-Toxic | Non-Toxic | Non-Toxic | Non-Toxic | Activity [3]: Non-Toxic; Activity (Plasmodium falciparum [10]): Active; mortality at 336 h [11]: 20%; Activity (Plasmodium falciparum [13]): 100%; Activity [17]: Toxic; Activity [18]: Non-Toxic; Activity [24]: Non-Toxic; Activity (Plasmodium falciparum [27]): Active; Activity [29]: Non-Toxic; Activity (Plasmodium berghei [30]): 33%; Activity [31]: Non-Toxic; selectivity ratio [32]: 95.8; hemolysis at 1 h, up to 1000 µM [33]: > 40%; Activity (Plasmodium falciparum [34]): Active; Activity [35]: Non-Toxic; Activity [36]: Non-Toxic; CC50 (HepG2): 289 µM |
| O=C1C=C(NCCn2cc(-c3ccccc3)nn2)C(=O)c2ccccc21 | Non-Toxic | 13 | Non-Toxic | 116 | Non-Toxic | Non-Toxic | Non-Toxic | Non-Toxic | < 40 | Non-Toxic | Non-Toxic | 2.67 | 343 | Non-Toxic | Non-Toxic | 0.81 | Non-Toxic | Non-Toxic | Non-Toxic | Non-Toxic | Activity [29]: Non-Toxic; Activity [31]: Non-Toxic; selectivity ratio [32]: 143; hemolysis at 1 h, up to 1000 µM [33]: > 40%; Activity [35]: Non-Toxic; Activity [36]: Non-Toxic; CC50 (HepG2): 278 µM |
| Cc1ccc(-c2cn(CCNC3=CC(=O)c4ccccc4C3=O)nn2)cc1 | Non-Toxic | 14 | Non-Toxic | 207 | Non-Toxic | Non-Toxic | Non-Toxic | Non-Toxic | < 40 | Non-Toxic | Non-Toxic | 3.12 | 6.88 | Non-Toxic | Non-Toxic | 15.1 | Non-Toxic | Non-Toxic | Non-Toxic | Non-Toxic | mortality at 336 h [11]: 100%; Activity [29]: Non-Toxic; Activity [31]: Non-Toxic; selectivity ratio [32]: 13.7; hemolysis at 1 h, up to 1000 µM [33]: > 40%; Activity [35]: Non-Toxic; Activity [36]: Non-Toxic; CC50 (HepG2): 104 µM |
| CC(C)(O)c1cn(CCNC2=CC(=O)c3ccccc3C2=O)nn1 | Non-Toxic | 14 | Non-Toxic | 188 | Non-Toxic | Non-Toxic | Non-Toxic | Non-Toxic | < 40 | Non-Toxic | Non-Toxic | 1.38 | 35.3 | Non-Toxic | Non-Toxic | 6.6 | Non-Toxic | Non-Toxic | Non-Toxic | Non-Toxic | Activity [29]: Non-Toxic; Activity [31]: Non-Toxic; selectivity ratio [32]: 28.5; hemolysis at 1 h, up to 1000 µM [33]: > 40%; Activity [35]: Non-Toxic; Activity [36]: Non-Toxic; CC50 (HepG2): 233 µM |
